Laboratory results: publication PMC7699381, “Rare-Earth Metal Complexes of the Antibacterial Drug Oxolinic Acid: Synthesis, Characterization, DNA/Protein Binding and Cytotoxicity Studies” (Molecules, 2020)

target: T1, Human serum albumin (HSA) (Homo sapiens, UniProt P02768); experiment: Fluorescence quenching of human serum albumin; details: 2.5 µM HSA, compound up to 8 µM, λex 280 nm
T1 sequence (P02768 25-609): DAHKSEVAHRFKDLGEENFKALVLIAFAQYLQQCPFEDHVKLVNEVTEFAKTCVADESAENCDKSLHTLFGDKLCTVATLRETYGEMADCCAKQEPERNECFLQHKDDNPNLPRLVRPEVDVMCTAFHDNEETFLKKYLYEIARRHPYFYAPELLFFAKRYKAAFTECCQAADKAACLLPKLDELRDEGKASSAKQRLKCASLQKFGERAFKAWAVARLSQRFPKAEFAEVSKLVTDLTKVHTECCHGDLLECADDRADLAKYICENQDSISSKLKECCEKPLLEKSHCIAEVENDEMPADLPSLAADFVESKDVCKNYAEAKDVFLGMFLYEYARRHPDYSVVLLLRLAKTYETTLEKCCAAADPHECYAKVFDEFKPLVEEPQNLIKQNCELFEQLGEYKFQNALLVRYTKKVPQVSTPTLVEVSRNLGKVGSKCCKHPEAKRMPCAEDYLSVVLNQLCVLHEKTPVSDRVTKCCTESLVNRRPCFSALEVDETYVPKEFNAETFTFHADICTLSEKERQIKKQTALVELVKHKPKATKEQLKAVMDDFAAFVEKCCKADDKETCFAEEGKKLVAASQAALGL

Substance	quenching effect on HSA fluorescence peak
[Gd(oxo)(OH)(H2O)]·0.5H2O [Gd oxo]	~ 47%
[Tb(oxo)(OH)(H2O)] · 0.5 H2O [Tb oxo]	52.63%

same assay, conditions: 298 K

Substance	Ka (association binding constant), HSA	n (Hill Coefficient), HSA	n (Number of Binding Sites), HSA
[Gd(oxo)(OH)(H2O)]·0.5H2O [Gd oxo]	(1.98 ± 0.82) × 10^5 M^−1	1.81 ± 0.26	1.06 ± 0.03
[Tb(oxo)(OH)(H2O)] · 0.5 H2O [Tb oxo]	6.83(±1.33) × 10^5 M^−1	1.58 ± 0.20	1.18 ± 0.01

same assay, conditions: 298 K, 2.5 µM HSA, 0–8 µM compound, pH 7.4

Substance	Ksv (Stern-Volmer constant), HSA
[Gd(oxo)(OH)(H2O)]·0.5H2O [Gd oxo]	(5.77 ± 0.84) × 10^4 M^−1
[Tb(oxo)(OH)(H2O)] · 0.5 H2O [Tb oxo]	(2.84 ± 0.70) × 10^4 M^−1

same assay, conditions: 298 K, from KSV = Kq τ0

Substance	Kq (bimolecular quenching constant), HSA
[Gd(oxo)(OH)(H2O)]·0.5H2O [Gd oxo]	5.77e+12 M⁻¹ s⁻¹
[Tb(oxo)(OH)(H2O)] · 0.5 H2O [Tb oxo]	2.84e+12 M⁻¹ s⁻¹

same assay, conditions: 298 K, modified Stern-Volmer

Substance	fa (fraction of fluorophore accessible to the quencher), HSA
[Gd(oxo)(OH)(H2O)]·0.5H2O [Gd oxo]	1.39 ± 0.15
[Tb(oxo)(OH)(H2O)] · 0.5 H2O [Tb oxo]	2.13 ± 0.45

same assay, conditions: 298 K; listed as Tb-oxo

Substance	Ka (association binding constant), HSA
[Tb(oxo)(OH)(H2O)] · 0.5 H2O [Tb oxo]	(6.83 ± 1.33) × 10^5 M^−1

tested on: MDA-MB 231 (human breast adenocarcinoma); experiment: MTS cytotoxicity assay, MDA-MB 231 cells; type: cell-based; details: 48 h of incubation
Procedure: (§1) For the evaluation of the cytotoxic effects of the complexes and ligand two human cancer cell lines were used, namely MDA-MB 231 (human breast adenocarcinoma) and LoVo (human colon adenocarcinoma); a normal cell line, human umbilical vein endothelial cells (HUVEC), was used as a reference. […] After 24 h and 48 h, respectively, cell viability was evaluated through MTS assay (data shown in Figures S16–S18) and the IC50 values were calculated (Table 5). The cytotoxicity assay is based on the ability of metabolically active cells to reduce MTS, a yellow tetrazolium salt, to the colored formazan, soluble in the culture medium; the concentration of formazan can be spectrophotometrically determined. […] PES is a cationic dye with high chemical stability that binds to MTS and forms a stable solution. […] The reduced MTS to formazan was spectrophotometrically measured at λ = 492 nm. The test was run on two cancer cell lines, LoVo and MDA-MB 231, and on a normal cell line, HUVEC. […] Cell viability data were obtained in triplicate (n = 3) and expressed as mean values ± standard deviations (SD). […] All assays were performed in 96-well microtiter plates with flat bottom (Falcon), using CellTiter 96 Aqueous One Solution Cell Proliferation Assay (Promega), an MTS-based colorimetric assay. The formazan was spectrophotometrically measured using the Tecan GENios Spectrophotometer.

Substance	IC50
[Gd(oxo)(OH)(H2O)]·0.5H2O [Gd oxo]	73.8 ± 18.5 µM
[Tb(oxo)(OH)(H2O)] · 0.5 H2O [Tb oxo]	> 200 µM

tested on: EB-DNA system (CT-DNA); experiment: Competitive binding assay with ethidium bromide (EB) through fluorescence spectroscopy; design: species or system calf; details: 10 µM CT-DNA, 2 µM EB, 0–40 µM compound, λex 500 nm
From the text: The manner of binding to the DNA macromolecule can be investigated through competitive binding studies with ethidium bromide (3,8-diamino-5-ethyl-6-phenylphenanthridinium bromide), a fluorescent dye; due to its aromatic ring, it can intercalate between two adjacent base pairs in the DNA structure and form a complex which emits fluorescent light; displacing EB results in a quenching effect. The Stern-Volmer constant (KSV) and the dissociation constant (K50) have been calculated from the resulting data.
Competitive binding studies were carried out on a Jasco FP 6500 fluorometer at room temperature, using quartz cells of 1 cm path-length. The fluorescence spectra were recorded on 1.6 mL samples containing 10 µM CT-DNA and 2 µM EB in the absence and presence of increasing amounts (0–40 µM with an increment of 5 µM) of complexes and free ligands, respectively, after being kept in contact for 10 min at room temperature, under continuous stirring and in the dark. The excitation wavelength used was 500 nm and the spectra was recorded in the 520–800 nm range. Two control samples were used, the first one containing DMSO, DNA and EB and the second one just the complex.
Data from the assay can be interpreted using the classical Stern-Volmer equation (Equation (3)):(3) F0/F=1+ KSV·[Q] where F0 and F are the fluorescence intensities of the EB-DNA samples in the absence and presence of the tested compounds and [Q] is the concentration of the compound; KSV is the Stern-Volmer constant and can be calculated from the plot of F0/F vs. [Q] as the slope.
The ratio of binding relative to the control sample exposed only to DMSO was plotted against the logarithm of concentration. The data points were fitted using the modified Hill function with offset (Origin®) (Equation (4)):(4) y=A1+(A2−A1)×x^n/K50^n+x^n where y is the ratio of binding (F/F0) and x is the concentration, A1 is the minimum of y values, A2 is the maximum of y values, K50 is the concentration corresponding to 50% binding and n is the Hill coefficient.

Substance	Ksv (Stern-Volmer quenching constant, EB-DNA system)
[Gd(oxo)(OH)(H2O)]·0.5H2O [Gd oxo]	(1.18 ± 0.01) × 10^4
[Tb(oxo)(OH)(H2O)] · 0.5 H2O [Tb oxo]	(1.18 ± 0.00) × 10^4

same assay, conditions: concentration corresponding to 50% binding; 10 µM CT-DNA, 2 µM EB

Substance	K50 (EB Displacement Assay)
[Gd(oxo)(OH)(H2O)]·0.5H2O [Gd oxo]	47.75 ± 25.22 µM
[Tb(oxo)(OH)(H2O)] · 0.5 H2O [Tb oxo]	20.28 ± 1.15 µM

tested on: LoVo (human colon adenocarcinoma); experiment: MTS cytotoxicity assay, LoVo cells; type: cell-based; details: 48 h of incubation
Procedure: as §1

Substance	IC50
[Gd(oxo)(OH)(H2O)]·0.5H2O [Gd oxo]	56.5 ± 3.83 µM
[Tb(oxo)(OH)(H2O)] · 0.5 H2O [Tb oxo]	40.6 ± 7.43 µM

tested on: HUVEC (normal human umbilical vein endothelial cells); experiment: MTS cytotoxicity assay, HUVEC normal cells; type: cell-based; details: 48 h of incubation
Procedure: as §1

Substance	IC50
[Gd(oxo)(OH)(H2O)]·0.5H2O [Gd oxo]	> 200 µM
[Tb(oxo)(OH)(H2O)] · 0.5 H2O [Tb oxo]	> 200 µM

target: T1, Human serum albumin (HSA); experiment: not given; details: not given

Substance	Kd
[Gd(oxo)(OH)(H2O)]·0.5H2O [Gd oxo]	5.32 ± 0.69 µM
[Tb(oxo)(OH)(H2O)] · 0.5 H2O [Tb oxo]	5.97 ± 0.89 µM

target: T2, Apo-transferrin (apo-Tf) (Homo sapiens, UniProt P02787); experiment: Fluorescence quenching of apo-transferrin; type: binding; details: 1 µM apo-Tf, compound up to 8 µM, λex 295 nm
T2 construct: purchased Sigma Aldrich Chemical Co. (Schnelldorf, Germany)
T2 sequence (P02787 20-698): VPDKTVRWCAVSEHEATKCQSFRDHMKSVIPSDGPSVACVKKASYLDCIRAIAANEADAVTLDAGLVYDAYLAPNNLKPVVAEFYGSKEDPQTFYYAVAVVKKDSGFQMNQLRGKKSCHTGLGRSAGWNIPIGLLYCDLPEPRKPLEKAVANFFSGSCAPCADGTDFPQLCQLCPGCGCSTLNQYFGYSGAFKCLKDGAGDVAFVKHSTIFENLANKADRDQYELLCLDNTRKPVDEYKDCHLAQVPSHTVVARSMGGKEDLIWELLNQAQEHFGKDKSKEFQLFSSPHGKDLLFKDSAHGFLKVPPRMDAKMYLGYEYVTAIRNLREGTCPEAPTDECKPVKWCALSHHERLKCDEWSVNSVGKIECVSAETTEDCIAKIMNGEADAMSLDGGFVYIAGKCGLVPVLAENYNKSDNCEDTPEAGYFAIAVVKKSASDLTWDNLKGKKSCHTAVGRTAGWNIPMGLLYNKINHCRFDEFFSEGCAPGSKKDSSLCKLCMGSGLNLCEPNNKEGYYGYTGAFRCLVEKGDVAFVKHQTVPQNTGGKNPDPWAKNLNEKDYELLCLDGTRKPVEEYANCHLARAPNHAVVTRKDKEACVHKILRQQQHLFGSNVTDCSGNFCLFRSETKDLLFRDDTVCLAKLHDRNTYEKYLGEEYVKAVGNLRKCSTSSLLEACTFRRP

Substance	quenching effect on apo-Tf fluorescence peak
[Tb(oxo)(OH)(H2O)] · 0.5 H2O [Tb oxo]	47.62%

same assay, conditions: 298 K

Substance	Ka (association binding constant), apo-Tf	n (Hill Coefficient), apo-Tf	n (Number of Binding Sites), apo-Tf
[Gd(oxo)(OH)(H2O)]·0.5H2O [Gd oxo]	(0.58 ± 0.25) × 10^4 M^−1	1.24 ± 0.45	0.76 ± 0.03
[Tb(oxo)(OH)(H2O)] · 0.5 H2O [Tb oxo]	(1.28 ± 0.17) × 10^4 M^−1	1.57 ± 0.33	0.81 ± 0.01

same assay, conditions: 298 K, 1 µM apo-Tf, 0–8 µM compound, pH 7.4

Substance	Ksv (Stern-Volmer constant), apo-Tf
[Gd(oxo)(OH)(H2O)]·0.5H2O [Gd oxo]	(17.51 ± 1.06) × 10^4 M^−1
[Tb(oxo)(OH)(H2O)] · 0.5 H2O [Tb oxo]	19.45 (± 1.10) × 10^4 M^−1

same assay, conditions: 298 K, 1 µM apo-Tf, 0–8 µM compound, pH 7.4; listed as Tb-oxo

Substance	Ksv (Stern-Volmer constant), apo-Tf
[Tb(oxo)(OH)(H2O)] · 0.5 H2O [Tb oxo]	(19.45 ± 1.10) × 10^4 M^−1

same assay, conditions: 298 K, from KSV = Kq τ0

Substance	Kq (bimolecular quenching constant), apo-Tf
[Gd(oxo)(OH)(H2O)]·0.5H2O [Gd oxo]	1.751e+13 M⁻¹ s⁻¹
[Tb(oxo)(OH)(H2O)] · 0.5 H2O [Tb oxo]	1.945e+13 M⁻¹ s⁻¹

same assay, conditions: 298 K, modified Stern-Volmer

Substance	fa (fraction of fluorophore accessible to the quencher), apo-Tf
[Gd(oxo)(OH)(H2O)]·0.5H2O [Gd oxo]	0.73 ± 0.02
[Tb(oxo)(OH)(H2O)] · 0.5 H2O [Tb oxo]	0.77 ± 0.01

same assay, conditions: 298 K; read-out: Kd, apo-Tf

Substance	Kd
[Gd(oxo)(OH)(H2O)]·0.5H2O [Gd oxo]	8.8 ± 6.57 µM
[Tb(oxo)(OH)(H2O)] · 0.5 H2O [Tb oxo]	5.57 ± 1.22 µM
